Data from patent publication US12649750B2, “Macrocyclic compounds, compositions, and methods of using thereof” (Sionna Therapeutics Inc., priority 2022, dated 2026).

Tests used:
CFTR = molecular target: T1, CFTR (Homo sapiens, UniProt P13569, DEL508-508); experiment: TECC24 AUC fold over DMSO @10 μM, CFTR-mediated transepithelial chloride transport in CF-HBE cells; assay type: cell-based; conditions: test agent AUC divided by DMSO vehicle AUC, primary CF-HBE cells, ΔF508 homozygous donor, 48 hours incubation
T1 construct: Primary human bronchial epithelial cells from a ΔF508 homozygous CF donor; host or cells: primary human bronchial epithelial cells (CF-HBE), ΔF508 homozygous donor
T1 sequence (P13569 with tags, fused parts or gaps DEL508-508): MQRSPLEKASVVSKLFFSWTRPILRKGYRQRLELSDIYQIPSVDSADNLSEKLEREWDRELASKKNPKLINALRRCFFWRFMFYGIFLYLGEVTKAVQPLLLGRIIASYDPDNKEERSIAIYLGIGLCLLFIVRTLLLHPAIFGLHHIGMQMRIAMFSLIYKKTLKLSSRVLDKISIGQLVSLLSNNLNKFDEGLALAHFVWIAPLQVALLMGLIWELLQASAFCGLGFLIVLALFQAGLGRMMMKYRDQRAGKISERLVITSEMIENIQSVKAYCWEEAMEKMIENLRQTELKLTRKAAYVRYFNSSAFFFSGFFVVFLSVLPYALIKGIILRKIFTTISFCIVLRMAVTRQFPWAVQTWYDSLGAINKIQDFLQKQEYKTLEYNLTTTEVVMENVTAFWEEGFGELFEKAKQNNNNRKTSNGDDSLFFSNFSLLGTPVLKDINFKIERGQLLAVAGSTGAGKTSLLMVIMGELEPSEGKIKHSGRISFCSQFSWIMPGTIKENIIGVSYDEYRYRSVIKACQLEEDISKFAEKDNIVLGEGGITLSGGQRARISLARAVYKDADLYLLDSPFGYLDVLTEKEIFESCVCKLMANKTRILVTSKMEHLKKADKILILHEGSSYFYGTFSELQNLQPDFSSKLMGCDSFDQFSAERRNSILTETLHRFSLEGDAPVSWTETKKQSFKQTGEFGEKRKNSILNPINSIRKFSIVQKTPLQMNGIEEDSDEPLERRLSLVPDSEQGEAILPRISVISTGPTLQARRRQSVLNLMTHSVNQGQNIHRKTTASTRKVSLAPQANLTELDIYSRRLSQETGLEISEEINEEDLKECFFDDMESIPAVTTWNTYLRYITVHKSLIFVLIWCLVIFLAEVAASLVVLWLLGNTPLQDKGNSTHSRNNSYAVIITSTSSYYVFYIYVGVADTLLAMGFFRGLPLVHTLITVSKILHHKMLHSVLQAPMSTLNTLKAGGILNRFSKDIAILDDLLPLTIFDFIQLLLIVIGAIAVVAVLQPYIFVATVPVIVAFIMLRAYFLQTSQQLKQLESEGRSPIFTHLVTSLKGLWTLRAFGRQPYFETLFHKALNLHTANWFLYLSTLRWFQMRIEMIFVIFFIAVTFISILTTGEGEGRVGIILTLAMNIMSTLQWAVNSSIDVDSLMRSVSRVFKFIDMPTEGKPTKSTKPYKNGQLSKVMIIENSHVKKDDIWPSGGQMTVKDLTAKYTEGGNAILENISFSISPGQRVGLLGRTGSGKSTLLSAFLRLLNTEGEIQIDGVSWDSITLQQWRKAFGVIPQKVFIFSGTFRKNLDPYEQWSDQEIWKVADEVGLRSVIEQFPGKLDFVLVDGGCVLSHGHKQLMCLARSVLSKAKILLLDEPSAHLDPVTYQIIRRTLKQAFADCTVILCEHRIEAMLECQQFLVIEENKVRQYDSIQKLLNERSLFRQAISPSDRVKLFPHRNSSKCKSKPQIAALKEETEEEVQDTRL
Method in brief: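 Primary ΔF508-homozygous CF bronchial epithelial cells on inserts were incubated 48 h at 36.5 °C with compound in IL-13-containing medium. VT and TEER were then recorded in current-clamp mode (pH 7.4 HEPES bath) with benzamil 10 μM, forskolin 10 μM, then CFTR inhibitor-172 20 μM. The IEQ AUC between forskolin and inhibitor was divided by vehicle AUC.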

NBD1 = molecular target: T2, NBD1 (Homo sapiens, UniProt P13569); experiment: Aggregation analysis using differential static light scattering (DSLS), thermal stability of NBD1 (ΔTagg); assay type: binding; conditions: ΔTagg versus DMSO control, NBD1 0.2 mg/ml
T2 construct: Purified recombinant NBD1 was produced using previously described methods; made in house
T2 sequence (P13569 423-646 limits assumed): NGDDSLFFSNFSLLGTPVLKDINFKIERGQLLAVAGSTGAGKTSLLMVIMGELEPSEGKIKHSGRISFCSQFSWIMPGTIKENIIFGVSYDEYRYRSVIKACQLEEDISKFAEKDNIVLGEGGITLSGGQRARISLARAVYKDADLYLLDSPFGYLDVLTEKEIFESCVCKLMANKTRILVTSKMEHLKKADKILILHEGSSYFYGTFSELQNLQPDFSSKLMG
Method in brief: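 Thermal aggregation of purified NBD1 was followed by static light scattering during a 1° C./min ramp to 70° C. Protein was at 0.2 mg/ml with 2 mM ATP at pH7.6. Each compound's Tagg was referenced to DMSO controls.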

Structure (SMILES)	TECC (AUC, 10 μM) (CFTR)	DSLS 3D (100 μM ΔT) (NBD1)
C[C@@H](O)Cc1cccc([C@@]2(C)CCCC(C)(C)CS(=O)(=O)CCc3c(c(F)cc4[nH]ccc34)Sc3ccc(F)c(c3)-c3nc2nn3C)c1 [Compound 263, (2R)-1-[3-[(6R)-22,28-difluoro-3,6,10,10-tetramethyl-12,12-dioxo-12λ6,24-dithia-3,4,19,30-tetrazapentacyclo[23.3.1.12,5.015,23.016,20]triaconta-1(29),2(30),4,15,17,20,22,25,27-nonaen-6-yl]phenyl]propan-2-ol]	C (a value between 20 and 80 is marked “C”)	B (a value above 5 °C and less than or equal to 10 °C is marked “B”)
C[C@H](Cc1cccc([C@@]2(C)CCCC(C)(C)CS(=O)(=O)CCc3c(c(F)cc4[nH]ccc34)[S+]([O-])c3ccc(F)c(c3)-c3nc2nn3C)c1)C(=O)O (single isomer, unassigned) [Compound 206B]	A (a TECC value less than 12 is marked “A”)	B (a value above 5 °C and less than or equal to 10 °C is marked “B”)
Cn1nc2nc1-c1cc(ccc1F)Oc1c(F)cc3[nH]ccc3c1CCS(=O)(=O)CC(C)(C)CCCC2(C)c1cccc(O)c1 (stereo not shown) [Compound 154, 3-(22,28-Difluoro-3,6,10,10-tetramethyl-12,12-dioxo-24-oxa-12λ6-thia-3,4,19,30-tetrazapentacyclo[23.3.1.12,5.015,23.016,20]triaconta-1(29),2(30),4,15,17,20,22,25,27-nonaen-6-yl)phenol]	A (a TECC value less than 12 is marked “A”)	B (a value above 5 °C and less than or equal to 10 °C is marked “B”)
COCC(Cc1cccc([C@@]2(C)CCCC(C)(C)CS(=O)(=O)CCc3c(c(F)cc4[nH]ccc34)Oc3ccnc(c3)-c3nc2nn3C)c1)C(=O)O (single isomer, unassigned) [Compound 284]	C (a value between 20 and 80 is marked “C”)	C (a value greater than 10 °C and less than or equal to 25 °C is marked “C”)
C[C@H](Cc1cccc(C2(C)CCCC(C)(C)CS(=O)(=O)CCc3c(c(F)cc4[nH]ccc34)[S+]([O-])c3ccc(F)c(c3)-c3nc2nn3C)n1)C(=O)O (single isomer, unassigned) [Compound 181B]	A (a TECC value less than 12 is marked “A”)	A (an ΔTagg value less than or equal to 5 °C is marked “A”)
C[C@@H](Cc1cccc(C2(C)CCCCCS(=O)(=O)CCc3c(c(F)cc4[nH]ccc34)Oc3ccnc(c3)-c3nc2nn3C)c1)C(=O)O (single isomer, unassigned) [Compound 261B]	A (a TECC value less than 12 is marked “A”)	A (an ΔTagg value less than or equal to 5 °C is marked “A”)
CCn1nc2nc1-c1cc(ccc1F)Oc1c(F)cc3[nH]ccc3c1CCS(=O)(=O)CC(C)(C)CCCC2(C)c1cccc(CCC(=O)O)c1 (single isomer, unassigned) [Compound 91B, 3-[3-(3-ethyl-22,28-difluoro-6,10,10-trimethyl-12,12-dioxo-24-oxa-12lambda6-thia-3,4,19,30-tetrazapentacyclo[23.3.1.12,5.015,23.016,20]triaconta-1(29),2(30),4,15,17,20,22,25,27-nonaen-6-yl)phenyl]propanoic Acid]	A (a TECC value less than 12 is marked “A”)	A (an ΔTagg value less than or equal to 5 °C is marked “A”)
CC(Cc1cccc(C2(C)CCCC(C)(C)CS(=O)(=O)CCc3c(c(F)cc4[nH]ccc34)Sc3ccc(F)c(c3)-c3nc2nn3C)c1)C(=O)O (single isomer, unassigned) [Compound 33A, 3-[3-(22,28-difluoro-3,6,10,10-tetramethyl-12,12-dioxo-12lambda6,24-dithia-3,4,19,30-tetrazapentacyclo[23.3.1.12,5.015,23.016,20]triaconta-1(29),2(30),4,15,17,20,22,25,27-nonaen-6-yl)phenyl]-2-methyl-propanoic Acid]	C (a value between 20 and 80 is marked “C”)	C (a value greater than 10 °C and less than or equal to 25 °C is marked “C”)
Cn1nc2nc1-c1cc(ccc1F)C(O)c1c(F)cc3[nH]ccc3c1CCS(=O)(=O)CC(C)(C)CCCC2(C)c1cccc(CCC(=O)O)c1 (single isomer, unassigned) [Compound 30A, 3-[3-(22,28-difluoro-24-hydroxy-3,6,10,10-tetramethyl-12,12-dioxo-12lambda6-thia-3,4,19,30-tetrazapentacyclo[23.3.1.12,5.015,23.016,20]triaconta-1(29),2(30),4,15,17,20,22,25,27-nonaen-6-yl)phenyl]propanoic acid]	C (a value between 20 and 80 is marked “C”)	C (a value greater than 10 °C and less than or equal to 25 °C is marked “C”)
Cn1nc2nc1-c1cc(ccc1F)[S+]([O-])c1c(F)cc3[nH]ccc3c1CCS(=O)(=O)CC(C)(C)CCC[C@]2(C)c1cccc([C@@H](O)CO)c1 (single isomer, unassigned) [Compound 236B]	C (a value between 20 and 80 is marked “C”)	C (a value greater than 10 °C and less than or equal to 25 °C is marked “C”)
Cn1nc2nc1-c1cc(ccc1F)Oc1c(F)cc3[nH]ccc3c1CCS(=O)(=O)CC1(CCCC2(C)c2cccc(CCC(=O)O)c2)CC1 (single isomer, unassigned) [Compound 12B, 3-[3-(22,28-difluoro-3,6-dimethyl-12,12-dioxo-spiro[24-oxa-12lambda6-thia-3,4,19,30-tetrazapentacyclo[23.3.1.12,5.015,23.016,20]triaconta-1(29),2(30),4,15,17,20,22,25,27-nonaene-10,1′-cyclopropane]-6-yl)phenyl]propanoic acid]	C (a value between 20 and 80 is marked “C”)	A (an ΔTagg value less than or equal to 5 °C is marked “A”)
Cn1nc2nc1-c1cc(ccc1F)Oc1c(F)cc3[nH]ccc3c1CCS(=O)(=O)CC(C)(C)CCCC2(C)c1cccc(C(O)CC(=O)O)c1 (stereo not shown) [Compound 178, 3-[3-(22,28-Difluoro-3,6,10,10-tetramethyl-12,12-dioxo-24-oxa-12λ6-thia-3,4,19,30-tetrazapentacyclo[23.3.1.12,5.015,23.016,20]triaconta-1(29),2(30),4,15,17,20,22,25,27-nonaen-6-yl)phenyl]-3-hydroxy-propanoic Acid]	C (a value between 20 and 80 is marked “C”)	C (a value greater than 10 °C and less than or equal to 25 °C is marked “C”)
C[C@@H](Cc1cccc([C@@]2(C)CCCC(C)(C)CS(=O)(=O)CCc3c(c(F)cc4[nH]ccc34)Oc3ccc(F)c(c3)-c3nc2nn3C)c1)C(=O)O (single isomer, unassigned) [Compound 7]	B (a value between 12-20 is marked “B”)	C (a value greater than 10 °C and less than or equal to 25 °C is marked “C”)
C[C@H](Cc1cccc([C@@]2(C)CCCC(C)(C)CS(=O)(=O)CCc3c(c(F)c(F)c4[nH]ccc34)[S+]([O-])c3ccnc(c3)-c3nc2nn3C)c1)C(=O)O (single isomer, unassigned) [Compound 269]	C (a value between 20 and 80 is marked “C”)	C (a value greater than 10 °C and less than or equal to 25 °C is marked “C”)
CC(Cc1cccc(C2(C#N)CCCC(C)(C)CS(=O)(=O)CCc3c(c(F)cc4[nH]ccc34)Oc3ccc(F)c(c3)-c3nc2nn3C)c1F)C(=O)O (single isomer, unassigned) [Compound 124B, 3-[3-(6-cyano-22,28-difluoro-3,10,10-trimethyl-12,12-dioxo-24-oxa-12λ6-thia-3,4,19,30-tetrazapentacyclo-[23.3.1.12,5.015,23.016,20]triaconta-1(29),2(30),4,15,17,20,22,25,27-nonaen-6-yl)-2-fluoro-phenyl]-2-methyl-propanoic Acid]	A (a TECC value less than 12 is marked “A”)	B (a value above 5 °C and less than or equal to 10 °C is marked “B”)
Cn1nc2nc1-c1cc(ccc1F)C(O)c1c(F)cc3[nH]ccc3c1CCS(=O)(=O)CC(C)(C)CCCC2(C)c1cccc(CCC(=O)O)c1 (single isomer, unassigned) [Compound 30B, 3-[3-(22,28-difluoro-24-hydroxy-3,6,10,10-tetramethyl-12,12-dioxo-12lambda6-thia-3,4,19,30-tetrazapentacyclo[23.3.1.12,5.015,23.016,20]triaconta-1(29),2(30),4,15,17,20,22,25,27-nonaen-6-yl)phenyl]propanoic acid]	B (a value between 12-20 is marked “B”)	B (a value above 5 °C and less than or equal to 10 °C is marked “B”)
COC(=O)C(C)CCc1cccc(C2(C)CCCC(C)(C)CS(=O)(=O)CCc3c(c(F)cc4[nH]ccc34)Oc3ccc(F)c(c3)-c3nc2nn3C)c1 (stereo not shown) [Compound 159, Methyl 4-[3-(22,28-difluoro-3,6,10,10-tetramethyl-12,12-dioxo-24-oxa-12λ6-thia-3,4,19,30-tetrazapentacyclo[23.3.1.12,5.015,23.016,20]triaconta-1(29),2(30),4,15,17,20,22,25,27-nonaen-6-yl)phenyl]-2-methyl-butanoate]	B (a value between 12-20 is marked “B”)	A (an ΔTagg value less than or equal to 5 °C is marked “A”)
